Key:
[1] = tested on: Mycosphaerella graminicola (Septoria tritici); test: Mycosphaerella graminicola (Septoria tritici) / liquid culture (Septoria blotch); format: cell-based; details: Zymoseptoria tritici, liquid culture (PDB), growth inhibition photometrically 4-5 days after application, compared to untreated control
Protocol: (§1) Example B11. Mycosphaerella graminicola (Septoria tritici)/Liquid Culture (Septoria Blotch) Conidia of the fungus from cryogenic storage are directly mixed into nutrient broth (PDB potato dextrose broth). After placing a (DMSO) solution of test compound into a microtiter plate (96-well format), the nutrient broth containing the fungal spores is added. The test plates are incubated at 24° C. and the inhibition of growth is determined photometrically 4-5 days after application.

[2] = tested on: Monographella nivalis (Microdochium nivale); test: Monographella nivalis (Microdochium nivale) / liquid culture (foot rot cereals); format: cell-based; details: liquid culture (PDB), growth inhibition photometrically 4-5 days after application, compared to untreated control
Protocol: as §1, with “B6. Monographella nivalis (Microdochium nivale)/Liquid” for “B11. Mycosphaerella graminicola (Septoria tritici)/Liquid”, “(Foot Rot Cereals)” for “(Septoria Blotch)”, “application. […] […]-25, and P-26.” for “application.”

[3] = tested on: Glomerella lagenarium (Colletotrichum lagenarium); test: Glomerella lagenarium (Colletotrichum lagenarium) / liquid culture (anthracnose); format: cell-based; details: Colletotrichum orbiculare, liquid culture (PDB), growth inhibition photometrically 3-4 days after application, compared to untreated control
Protocol: as §1, with “B3. Glomerella lagenarium (Colletotrichum lagenarium)/Liquid” for “B11. Mycosphaerella graminicola (Septoria tritici)/Liquid”, “(Anthracnose)” for “(Septoria Blotch)”, “measured” for “determined”, “3-4” for “4-5”, “application. […] […]-25, and P-26.” for “application.”

[4] = tested on: Mycosphaerella arachidis (Cercospora arachidicola); test: Mycosphaerella arachidis (Cercospora arachidicola) / liquid culture (early leaf spot); format: cell-based; details: liquid culture (PDB), growth inhibition photometrically 4-5 days after application, compared to untreated control
Protocol: as §1, with “B7.” for “B11.”, “arachidis (Cercospora arachidicola)/Liquid” for “graminicola (Septoria tritici)/Liquid”, “(Early Leaf Spot)” for “(Septoria Blotch)”, “application. […] […]-22, and P-25.” for “application.”

[5] = tested on: Puccinia recondita f. sp. tritici; test: Puccinia recondita f. sp. tritici / wheat / leaf disc preventative (brown rust); format: in vivo; details: foliar, wheat leaf segments cv. Kanzler, inoculated 1 day after application, compared to untreated control
Protocol: Example B8. Puccinia recondita f. Sp. tritici/Wheat/Leaf Disc Preventative (Brown Rust) Wheat leaf segments cv. Kanzler are placed on agar in multiwell plates (24-well format) and sprayed with the formulated test compound diluted in water. The leaf disks are inoculated with a spore suspension of the fungus 1 day after application. The inoculated leaf segments are incubated at 19° C. and 75% rh under a light regime of 12 h light/12 h darkness in a climate cabinet and the activity of a compound is assessed as percent disease control compared to untreated when an appropriate level of disease damage appears in untreated check leaf segments (7-9 days after application). […] […]-25, and P-26.

Alternaria solani = Alternaria solani / tomato / leaf disc (early blight); format: in vivo; details: foliar, tomato leaf disks cv. Baby, inoculated 2 days after application, compared to untreated control
Protocol: Example B1. Alternaria solani/Tomato/Leaf Disc (Early Blight) Tomato leaf disks cv. Baby are placed on agar in multiwell plates (24-well format) and sprayed with the formulated test compound diluted in water. The leaf disks are inoculated with a spore suspension of the fungus 2 days after application. The inoculated leaf disks are incubated at 23° C./21° C. […] […]-24, and P-25.

Pyrenophora teres = Pyrenophora teres / barley / leaf disc preventative (net blotch); format: in vivo; details: foliar, barley leaf segments cv. Hasso, inoculated 2 days after application, compared to untreated control
Protocol: Example B10. Pyrenophora teres/Barley/Leaf Disc Preventative (Net Blotch) Barley leaf segments cv. Hasso are placed on agar in a multiwell plate (24-well format) and sprayed with the formulated test compound diluted in water. The leaf segments are inoculated with a spore suspension of the fungus 2 days after application. The inoculated leaf segments are incubated at 20° C. and 65% rh under a light regime of 12 h light/12 h darkness in a climate cabinet and the activity of a compound is assessed as disease control compared to untreated when an appropriate level of disease damage appears in untreated check leaf segments (5-7 days after application). […] […]-25, and P-26.

[6] = tested on: Magnaporthe grisea (Pyricularia oryzae); test: whole plant or invertebrate; format: in vivo; details: foliar, read-out: control of Magnaporthe grisea
[7] = tested on: Botryotinia fuckeliana (Botrytis cinerea); test: Botryotinia fuckeliana (Botrytis cinerea) / liquid culture (gray mould); format: cell-based; details: 20 ppm; liquid culture (Vogels broth), growth inhibition photometrically 3-4 days after application; compared to untreated control
Protocol: as §1, with “B2. Botryotinia fuckeliana (Botrytis cinerea)/Liquid” for “B11. Mycosphaerella graminicola (Septoria tritici)/Liquid”, “(Gray Mould)” for “(Septoria Blotch)”, “(Vogels” for “(PDB potato dextrose”, “3-4” for “4-5”, “application. […] P-22.” for “application.”

CC1(C)CCC1NC(=O)c1nc(Nc2cc(F)cc(F)c2)cc2c1OCO2 (stereo not shown) [Compound P-11, 6-(3,5-difluoroanilino)-N-(2,2-dimethylcyclobutyl)-[1,3]dioxolo[4,5-c]pyridine-4-carboxamide]
inhibition of growth at 20 ppm [1]: ≥ 80% | inhibition of growth at 20 ppm [2]: ≥ 80% | inhibition of growth at 20 ppm [3]: ≥ 80% | inhibition of growth at 20 ppm [4]: ≥ 80% | pest or weed control at 200 ppm [5]: ≥ 80%

CC1(NC(=O)c2nc(Nc3cc(F)cc(F)c3)cc3c2OCO3)CCOC1 (stereo not shown) [Compound P-23, 6-(3,5-difluoroanilino)-N-(3-methyltetrahydrofuran-3-yl)-[1,3]dioxolo[4,5-c]pyridine-4-carboxamide]
inhibition of growth at 20 ppm [1]: ≥ 80% | pest or weed control at 200 ppm (Alternaria solani): ≥ 80% | pest or weed control at 200 ppm (Pyrenophora teres): ≥ 80% | inhibition of growth at 20 ppm [2]: ≥ 80% | inhibition of growth at 20 ppm [3]: ≥ 80%

CC(C)CCNC(=O)c1nc(Nc2cc(F)nc(F)c2)cc2c1OCO2 [Compound P-12, 6-[(2,6-difluoro-4-pyridyl)amino]-N-isopentyl-[1,3]dioxolo[4,5-c]pyridine-4-carboxamide]
inhibition of growth at 20 ppm [1]: ≥ 80% | inhibition of growth at 20 ppm [2]: ≥ 80% | pest or weed control at 200 ppm [5]: ≥ 80%

CC1(NC(=O)c2nc(Nc3cc(F)cc(F)c3)cc3c2OCO3)CSC1 [Compound P-19, 6-(3,5-difluoroanilino)-N-(3-methylthietan-3-yl)-[1,3]dioxolo[4,5-c]pyridine-4-carboxamide]
inhibition of growth at 20 ppm [1]: ≥ 80% | pest or weed control at 200 ppm (Alternaria solani): ≥ 80% | pest or weed control at 200 ppm (Pyrenophora teres): ≥ 80% | inhibition of growth at 20 ppm [2]: ≥ 80% | pest or weed control at 200 ppm [6]: ≥ 80% | inhibition of growth at 20 ppm [3]: ≥ 80% | inhibition of growth at 20 ppm [4]: ≥ 80%

CC1(NC(=O)c2nc(Nc3cc(F)cc(F)c3)cc3c2OCO3)COC1 [Compound P-24, 6-(3,5-difluoroanilino)-N-(3-methyloxetan-3-yl)-[1,3]dioxolo[4,5-c]pyridine-4-carboxamide]
inhibition of growth at 20 ppm [1]: ≥ 80% | pest or weed control at 200 ppm (Alternaria solani): ≥ 80% | inhibition of growth at 20 ppm [2]: ≥ 80% | pest or weed control at 200 ppm [6]: ≥ 80% | inhibition of growth at 20 ppm [3]: ≥ 80%

CC1(C)CCC1NC(=O)c1nc(Nc2cccc(F)c2)cc2c1OCO2 (stereo not shown) [Compound P-8, N-(2,2-dimethylcyclobutyl)-6-(3-fluoroanilino)-[1,3]dioxolo[4,5-c]pyridine-4-carboxamide]
inhibition of growth at 20 ppm [1]: ≥ 80% | pest or weed control at 200 ppm (Alternaria solani): ≥ 80% | pest or weed control at 200 ppm (Pyrenophora teres): ≥ 80% | inhibition of growth at 20 ppm [2]: ≥ 80% | inhibition of growth at 20 ppm [3]: ≥ 80% | inhibition of growth at 20 ppm [4]: ≥ 80% | pest or weed control at 200 ppm [5]: ≥ 80%

CC1(NC(=O)c2nc(Nc3cc(F)cc(F)c3)cc3c2OCO3)CCCC1 [Compound P-25, 6-(3,5-difluoroanilino)-N-(1-methylcyclopentyl)-[1,3]dioxolo[4,5-c]pyridine-4-carboxamide]
inhibition of growth at 20 ppm [1]: ≥ 80% | pest or weed control at 200 ppm (Alternaria solani): ≥ 80% | pest or weed control at 200 ppm (Pyrenophora teres): ≥ 80% | inhibition of growth at 20 ppm [2]: ≥ 80% | pest or weed control at 200 ppm [6]: ≥ 80% | inhibition of growth at 20 ppm [3]: ≥ 80% | inhibition of growth at 20 ppm [4]: ≥ 80% | pest or weed control at 200 ppm [5]: ≥ 80%

CC1(NC(=O)c2nc(Nc3cc(F)cc(F)c3)cc3c2OCO3)CCC1 [Compound P-22, 6-(3,5-difluoroanilino)-N-(1-methylcyclobutyl)-[1,3]dioxolo[4,5-c]pyridine-4-carboxamide]
inhibition of growth at 20 ppm [1]: ≥ 80% | pest or weed control at 200 ppm (Alternaria solani): ≥ 80% | pest or weed control at 200 ppm (Pyrenophora teres): ≥ 80% | control of Botryotinia fuckeliana [7]: at least 80% | inhibition of growth at 20 ppm [2]: ≥ 80% | pest or weed control at 200 ppm [6]: ≥ 80% | inhibition of growth at 20 ppm [3]: ≥ 80% | inhibition of growth at 20 ppm [4]: ≥ 80% | pest or weed control at 200 ppm [5]: ≥ 80%

CC1(C)CCC1NC(=O)c1nc(Nc2ccccc2)cc2c1OCO2 (stereo not shown) [Compound P-9, 6-anilino-N-(2,2-dimethylcyclobutyl)-[1,3]dioxolo[4,5-c]pyridine-4-carboxamide]
inhibition of growth at 20 ppm [1]: ≥ 80% | pest or weed control at 200 ppm (Alternaria solani): ≥ 80% | pest or weed control at 200 ppm (Pyrenophora teres): ≥ 80% | inhibition of growth at 20 ppm [2]: ≥ 80% | inhibition of growth at 20 ppm [3]: ≥ 80% | inhibition of growth at 20 ppm [4]: ≥ 80%

CC1(NC(=O)c2nc(Nc3cc(F)cc(F)c3)cc3c2OCO3)CCCCC1 [Compound P-26, 6-(3,5-difluoroanilino)-N-(1-methylcyclohexyl)-[1,3]dioxolo[4,5-c]pyridine-4-carboxamide]
inhibition of growth at 20 ppm [1]: ≥ 80% | pest or weed control at 200 ppm (Pyrenophora teres): ≥ 80% | inhibition of growth at 20 ppm [2]: ≥ 80% | pest or weed control at 200 ppm [6]: ≥ 80% | inhibition of growth at 20 ppm [3]: ≥ 80% | pest or weed control at 200 ppm [5]: ≥ 80%

CC(C)(C)NC(=O)c1nc(Nc2cc(F)cc(F)c2)cc2c1OCO2 [Compound P-21, N-tert-butyl-6-(3,5-difluoroanilino)-[1,3]dioxolo[4,5-c]pyridine-4-carboxamide]
inhibition of growth at 20 ppm [1]: ≥ 80% | pest or weed control at 200 ppm (Alternaria solani): ≥ 80% | pest or weed control at 200 ppm (Pyrenophora teres): ≥ 80% | inhibition of growth at 20 ppm [2]: ≥ 80% | pest or weed control at 200 ppm [6]: ≥ 80% | inhibition of growth at 20 ppm [3]: ≥ 80% | inhibition of growth at 20 ppm [4]: ≥ 80% | pest or weed control at 200 ppm [5]: ≥ 80%

CC(C)(C)CNC(=O)c1nc(Nc2cccc(F)c2)cc2c1OCO2 [Compound P-15, N-(2,2-dimethylpropyl)-6-(3-fluoroanilino)-[1,3]dioxolo[4,5-c]pyridine-4-carboxamide]
inhibition of growth at 20 ppm [1]: ≥ 80% | pest or weed control at 200 ppm (Pyrenophora teres): ≥ 80% | inhibition of growth at 20 ppm [2]: ≥ 80% | pest or weed control at 200 ppm [6]: ≥ 80% | inhibition of growth at 20 ppm [3]: ≥ 80% | inhibition of growth at 20 ppm [4]: ≥ 80%

CCC(C)(C)NC(=O)c1nc(Nc2cc(F)cc(F)c2)cc2c1OCO2 [Compound P-18, 6-(3,5-difluoroanilino)-N-(1,1-dimethylpropyl)-[1,3]dioxolo[4,5-c]pyridine-4-carboxamide]
inhibition of growth at 20 ppm [1]: ≥ 80% | pest or weed control at 200 ppm (Pyrenophora teres): ≥ 80% | inhibition of growth at 20 ppm [2]: ≥ 80% | pest or weed control at 200 ppm [6]: ≥ 80% | inhibition of growth at 20 ppm [3]: ≥ 80% | inhibition of growth at 20 ppm [4]: ≥ 80% | pest or weed control at 200 ppm [5]: ≥ 80%

Reference: patent US12497406B2, “Microbiocidal derivatives” (SYNGENTA CROP PROTECTION AG, priority 2019, dated 2025)
